Measurements published in paper PMC9404711 (Antibiotics, 2022).
Read-outs that look alike come from different tables or passages of the source. Non-standard residues stand in square brackets, D forms with d. Residues, ends and D or L forms follow the SMILES beside them. *: point of attachment. Myristoyl = CCCCCCCCCCCCCC(=O)*; Lauroyl = CCCCCCCCCCCC(=O)*; Decanoyl = CCCCCCCCCC(=O)*; Octanoyl = CCCCCCCC(=O)*; Hexanoyl = CCCCCC(=O)*

Legend:
[1] = system: S. aureus (ATCC 29213); assay: MIC determination, broth microdilution; type: cell-based, Staphylococcus aureus; conditions: S. aureus ATCC 29213, MHB-II, 37 °C, 18–24 h, triplicate
Description: (§1) The following bacteria were grown in cation-adjusted Muller-Hinton broth at 37 °C with shaking: A. baumannii (ATCC 19606), E. coli (ATCC 25922), K. pneumoniae (ATCC 13883), P. aeruginosa (ATCC 27853), and S. aureus (ATCC 29213).
(§2) The MIC experiments were performed in triplicate, as described in Jensen et al.. Briefly, all peptide stock solutions were prepared by dissolving each peptide in Milli-Q water to obtain a concentration of 10 mg/mL. A bacterial concentration of 10^6 CFU/mL was obtained through the dilution of an overnight culture (MHB-II medium). When the overnight culture was prepared, the OD was measured using a spectrophotometer and when an OD value between 0.2 and 0.4 was obtained, the culture was diluted to OD = 0.002. The MIC determination was carried out in 96-well polypropylene microtitre plates. […] A final bacterial inoculum of 5 × 10^5 CFU/mL per well was obtained by adding 50 μL bacterial suspension to the microtiter plates. The plates were incubated at 37 °C for 18–24 h. To verify the CFU, 10 μL of bacteria suspension was transferred to 990 μL 0.9 % saline solution, from which a 10-fold dilution was carried out. Then, 100 μL of the dilution was plated on an LB plate and left for bacterial growth overnight at 37 °C. Colistin and vancomycin were used as the positive controls.

[2] = system: E. coli (ATCC 25922); type: cell-based, Escherichia coli; conditions: E. coli ATCC 25922, MHB-II, 37 °C, 18–24 h, triplicate
Description: as §1, §2

[3] = system: K. pneumoniae (ATCC 13883); type: cell-based, Klebsiella pneumoniae; conditions: K. pneumoniae ATCC 13883, MHB-II, 37 °C, 18–24 h, triplicate
Description: as §1, §2

[4] = system: A. baumannii (ATCC 19606); type: cell-based, Acinetobacter baumannii; conditions: A. baumannii ATCC 19606, MHB-II, 37 °C, 18–24 h, triplicate
Description: as §1, §2

[5] = system: P. aeruginosa (ATCC 27853); type: cell-based, Pseudomonas aeruginosa; conditions: P. aeruginosa ATCC 27853, MHB-II, 37 °C, 18–24 h, triplicate
Description: as §1, §2

[6] = Hydrophobicity by analytical RP-HPLC (%B at elution); type: physicochemical; conditions: chromatographic, analytical reversed-phase HPLC, Waters Symmetry C18 5 μm 4.6 × 250 mm; A: H2O + 0.1% TFA, B: 90:10 ACN-H2O + 0.1% TFA
Description: Peptide purity was determined as described previously by analytical RP-HPLC using a Waters 717 plus Autosampler, In-line Degasser AF, 600 Controller, and 2996 Photodiode Array Detector; the column used was a Waters Symmetry C18 column (5 μm, 4.6 mm × 250 mm, Milford, MA, USA). An aqueous acetonitrile (ACN) gradient with 0.1% TFA added (mixing eluent A: H2O + 0.1% TFA and eluent B: 90:10 ACN-H2O + 0.1% TFA) was employed using milli-Q water. Preparative RP-HPLC was performed by using a Waters XSelect Peptide CSH C18 OBDTM column (5 μm, 19 mm × 250 mm, Milford, MA, USA) with the same eluents as for analytical HPLC.
*Hydrophobicity as indicated by the percentage of mobile phase B (%B) at the peak elution time on analytical

[7] = system: human erythrocytes; conditions: 150 μM peptide; 0.5% (v/v) red blood cell suspension in PBS, 1 h at 37 °C, absorbance 414 nm; melittin positive control, PBS negative control; three wells
Description: PBS served as the negative control and 5 μM melittin served as the positive control. All melittin solutions were prepared in Protein LoBind Eppendorf tubes to prevent the adsorption of melittin to the inner surface of the tubes.
Preparation of peptide solutions and melittin: A 5 μM melittin solution in PBS was prepared the day before the hemolysis experiment. First, 150 μL of this solution was transferred to each of the positive control wells and stored in the fume hood to coat the wells. On the day of the experiment, the melittin solution was discarded and the wells were washed with 3 × PBS. A 2.5 μM melittin solution in PBS was prepared and 75 μL was transferred to the wells. PBS (150 μL) was used as the negative control. A solution of each peptide was prepared by dissolving the peptide in 0.5 mL PBS to obtain a concentration of 300 μM. Each peptide solution (150 μL) was transferred to the wells in three wells each in row A, and the plate was diluted down.
Preparation of the red blood cell suspension: 1 mL of type O- whole blood in citrate was transferred to a cryotube. The whole blood was washed with 3 × PBS; adding 3, 3, and 4 mL of PBS, respectively. In between, the blood was centrifuged for 8 min (3000, 3000, and 4000 rpm, respectively) and the supernatant was removed after each centrifugation. A 0.5% (v/v) blood suspension was prepared by adding 40 μL of the washed blood cells to 8 mL of PBS. Then, 75 μL of the red blood cell suspension was transferred to each well and mixed gently. The plate was sealed and incubated for 1 h at 37 °C. After incubation, the plate was centrifuged at 4000 rpm for 10 min. Afterwards, 60 μL of the supernatant from each well was quickly transferred to an ELISA plate.
The absorbance was determined at 414 nm, and Equation (1) below was used to calculate the hemolytic activity of the peptides.

Row | SMILES | MIC SA ([1]; value in brackets) [µM] | MIC EC ([2]; inoculum 5 × 10^5 CFU/mL) [µg/mL] | MIC EC ([2]; value in brackets) [µM] | MIC KP ([3]; inoculum 5 × 10^5 CFU/mL) [µg/mL] | MIC KP ([3]; value in brackets) [µM] | MIC AB ([4]; inoculum 5 × 10^5 CFU/mL) [µg/mL] | MIC AB ([4]; value in brackets) [µM] | MIC PA ([5]; inoculum 5 × 10^5 CFU/mL) [µg/mL] | MIC PA ([5]; value in brackets) [µM] | %B (hydrophobicity: percentage of mobile phase B at the peak elution time) [6] [%B] | % hemolysis of human erythrocytes [7] [%] | MIC SA ([1]; inoculum 5 × 10^5 CFU/mL) [µg/mL]
1 | CCCCCCCC(=O)N[C@H](CCCCN)C(=O)N[C@H](CCCCN)C(=O)N[C@H](CC(C)C)C(=O)N[C@H](Cc1ccccc1)C(=O)N[C@H](CCCCN)C(=O)N[C@H](CCCCN)C(=O)N[C@@H](C(=O)N[C@H](CC(C)C)C(=O)N[C@H](CCCNC(=N)N)C(=O)N[C@H](Cc1ccc(O)cc1)C(=O)N[C@H](CC(C)C)C(N)=O)[C@H](C)CC [compound 3] (Octanoyl-[dK][dK][dL][dF][dK][dK][dI][dL][dR][dY][dL]-NH2) | 40.1 | 16 | 10.2 | 8 | 5.1 | 4 | 2.5 | 32 | 20.3 | 64.1 | 100 | –
2 | CCCCCCCCCC(=O)N[C@H](CCCCN)C(=O)N[C@H](CCCCN)C(=O)N[C@H](CC(C)C)C(=O)N[C@H](Cc1ccccc1)C(=O)N[C@H](CCCCN)C(=O)N[C@H](CCCCN)C(=O)N[C@@H](C(=O)N[C@H](CC(C)C)C(=O)N[C@H](CCCNC(=N)N)C(=O)N[C@H](Cc1ccc(O)cc1)C(=O)N[C@H](CC(C)C)C(N)=O)[C@H](C)CC [compound 4] (Decanoyl-[dK][dK][dL][dF][dK][dK][dI][dL][dR][dY][dL]-NH2) | 20.0 | 32 | 20.0 | 32 | 20.0 | 32 | 20.0 | 32 | 20.0 | 85.0 | 100 | 32
3 | CC[C@@H](C)[C@H]1NC(=O)CN(C(=O)[C@@H](CCCCN)NC(=O)[C@@H](CCCCN)NC(=O)[C@@H](Cc2ccccc2)NC(=O)[C@@H](CC(C)C)NC(=O)[C@@H](CCCCN)NC(=O)[C@H](N)CCCCN)CCCC[C@H](C(N)=O)NC(=O)[C@@H](Cc2ccc(O)cc2)NC(=O)[C@@H](CCCNC(=N)N)NC(=O)[C@@H](CC(C)C)NC1=O [compound 9] | > 42.6 | > 64 | > 42.6 | > 64 | > 42.6 | > 64 | > 42.6 | > 64 | > 42.6 | 46.6 | 3 | > 64
4 | CCCCCCCCCCCC(=O)N[C@H](CCCCN)C(=O)N[C@H](CCCCN)C(=O)N[C@H](CC(C)C)C(=O)N[C@H](Cc1ccccc1)C(=O)N[C@H](CCCCN)C(=O)N[C@H](CCCCN)C(=O)N[C@@H](C(=O)N[C@H](CC(C)C)C(=O)N[C@H](CCCNC(=N)N)C(=O)N[C@H](Cc1ccc(O)cc1)C(=O)N[C@H](CC(C)C)C(N)=O)[C@H](C)CC [compound 5] (Lauroyl-[dK][dK][dL][dF][dK][dK][dI][dL][dR][dY][dL]-NH2) | 39.2 | 64 | 39.2 | 64 | 39.2 | 64 | 39.2 | 64 | 39.2 | 90.5 | 100 | 64
5 | CCCCCCCCCCCCCC(=O)N[C@H](CCCCN)C(=O)N[C@H](CCCCN)C(=O)N[C@H](CC(C)C)C(=O)N[C@H](Cc1ccccc1)C(=O)N[C@H](CCCCN)C(=O)N[C@H](CCCCN)C(=O)N[C@@H](C(=O)N[C@H](CC(C)C)C(=O)N[C@H](CCCNC(=N)N)C(=O)N[C@H](Cc1ccc(O)cc1)C(=O)N[C@H](CC(C)C)C(N)=O)[C@H](C)CC [compound 6] (Myristoyl-[dK][dK][dL][dF][dK][dK][dI][dL][dR][dY][dL]-NH2) | – | > 64 | > 38.6 | > 64 | > 38.6 | > 64 | > 38.6 | > 64 | > 38.6 | 96.5 | 100 | > 64
6 | CC[C@@H](C)[C@@H](NC(=O)[C@@H](CCCCN)NC(=O)[C@@H](CCCCN)NC(=O)[C@@H](Cc1ccccc1)NC(=O)[C@@H](CC(C)C)NC(=O)[C@@H](CCCCN)NC(=O)[C@H](N)CCCCN)C(=O)N[C@H](CC(C)C)C(=O)N1CCCC[C@H](C(N)=O)NC(=O)[C@@H](Cc2ccc(O)cc2)NC(=O)[C@@H](CCCNC(=N)N)NC(=O)C1 [compound 7] | > 42.6 | > 64 | > 42.6 | > 64 | > 42.6 | > 64 | > 42.6 | > 64 | > 42.6 | 44.1 | 3 | > 64
7 | CCCCCC(=O)N[C@H](CCCCN)C(=O)N[C@H](CCCCN)C(=O)N[C@H](CC(C)C)C(=O)N[C@H](Cc1ccccc1)C(=O)N[C@H](CCCCN)C(=O)N[C@H](CCCCN)C(=O)N[C@@H](C(=O)N[C@H](CC(C)C)C(=O)N[C@H](CCCNC(=N)N)C(=O)N[C@H](Cc1ccc(O)cc1)C(=O)N[C@H](CC(C)C)C(N)=O)[C@H](C)CC [compound 2] (Hexanoyl-[dK][dK][dL][dF][dK][dK][dI][dL][dR][dY][dL]-NH2) | 41.4 | 8 | 5.2 | 8 | 5.2 | 4 | 2.6 | 32 | 20.7 | 67.9 | 100 | 64
8 | CCCCCCCCCCCCCC(=O)N[C@H](CCCCN)C(=O)N[C@H](CCCCN)C(=O)N[C@H](CC(C)C)C(=O)N[C@H](Cc1ccccc1)C(=O)N[C@H](CCCCN)C(=O)N[C@H](CCCCN)C(=O)N[C@@H](C(=O)N1CCCC[C@H](C(N)=O)NC(=O)[C@@H](Cc2ccc(O)cc2)NC(=O)[C@@H](CCCNC(=N)N)NC(=O)[C@@H](CC(C)C)NC(=O)C1)[C@H](C)CC [compound 15] | 2.3 | 4 | 2.3 | 16 | 9.3 | 4 | 2.3 | 8 | 4.6 | 78.5 | 83 | 4
